Target: T1, AT1R-CXCR2 heteromer (Homo sapiens, UniProt P25025+P30556)
T1 sequence (P25025 1-360): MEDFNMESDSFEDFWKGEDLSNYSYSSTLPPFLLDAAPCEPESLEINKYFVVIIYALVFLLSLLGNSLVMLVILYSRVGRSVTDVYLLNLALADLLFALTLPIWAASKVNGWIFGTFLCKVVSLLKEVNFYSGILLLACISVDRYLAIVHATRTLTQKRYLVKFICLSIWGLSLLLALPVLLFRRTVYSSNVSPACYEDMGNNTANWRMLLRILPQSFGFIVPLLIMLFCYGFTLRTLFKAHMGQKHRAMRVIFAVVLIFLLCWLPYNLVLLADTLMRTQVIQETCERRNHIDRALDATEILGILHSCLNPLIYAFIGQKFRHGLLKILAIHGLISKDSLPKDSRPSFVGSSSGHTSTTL
T1 sequence (P30556 1-359): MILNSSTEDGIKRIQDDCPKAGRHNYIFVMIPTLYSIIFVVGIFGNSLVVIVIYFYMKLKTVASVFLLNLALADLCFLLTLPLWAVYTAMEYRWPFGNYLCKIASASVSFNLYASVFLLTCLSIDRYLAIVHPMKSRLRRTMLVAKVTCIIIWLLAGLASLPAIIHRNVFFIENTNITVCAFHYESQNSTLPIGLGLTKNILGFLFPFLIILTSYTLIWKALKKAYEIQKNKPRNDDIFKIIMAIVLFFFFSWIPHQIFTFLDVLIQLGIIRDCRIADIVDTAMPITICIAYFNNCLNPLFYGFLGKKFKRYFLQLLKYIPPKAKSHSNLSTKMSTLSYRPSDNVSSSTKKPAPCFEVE
Assay: BRET Gi coupling (Receptor-HIT), CXCR2/Rluc8, Venus/mGsi and HA-AT1R, HEK293FT cells
Format: cell-based
Experimental: HEK293FT cells were seeded in 6-well plates at a density of approximately 700,000 cells/well and maintained at 37° C., 5% CO2 in Complete Media (DMEM containing 0.3 mg/ml glutamine, 100 IU/ml penicillin and 100 μg/ml streptomycin (Gibco/Thermo Fisher)) supplemented with 10% fetal calf serum (FCS; Bovogen). […] BRET measurements were taken at 37° C. using the LUMlstarTM or CLARIOstarTM (BMG Labtech). Filtered light emissions were measured for 1 s in each of the 'donor wavelength window' (460-490 nm for LUMlstarTM or 410-490 nm for CLARIOstarTM) and 'acceptor wavelength window' (520-550 nm for LUMlstarTM or 520-620 nm for CLARIOstarTM). The BRET signal observed between interacting proteins is normalized by subtracting the background BRET ratio. This can be done in one of two ways (see Pfleger et al. (2006) Cell Signal 18:1664-1670; Pfleger et al. (2006) Nat Protoc 1:336-344): 1) the ratio of the 520-550 nm or 520-620 nm emission over the 460-490 nm or 410-490 nm emission for a cell sample containing only the donor construct is subtracted from the same ratio for a sample containing the interacting acceptor and donor fusion proteins; 2) the ratio of the 520-550 nm or 520-620 nm emission over the 460-490 nm or 410-490 nm emission for a cell sample treated with vehicle is subtracted from the same ratio for a second aliquot of the same cell sample treated with ligand. […]

Angiotensin II [AngII]
ligand-induced BRET signal, CXCR2/Rluc8 and Venus/mGsi: approximately 0.05
